Values quoted from earlier work, collected in patent US11857530B2, “Cannabinoid formulations” (Endocanna Health, Inc., priority 2017, dated 2024).

Legend:
CYP3A4 = CYP3A4 (Homo sapiens, UniProt P08684); details: after oromucosal dosing; for boost of THC and CBD levels by ketoconazole: co-administered CYP3A4 inhibitor ketoconazole; for boost of THC and CBD levels by the CYP3A4 inhibitor ketoconazole: clinical studies, co-administered ketoconazole
ABCB1 = ABCB1 (Homo sapiens, UniProt P08183)
Sequence of ABCB1 (P08183 whole entry): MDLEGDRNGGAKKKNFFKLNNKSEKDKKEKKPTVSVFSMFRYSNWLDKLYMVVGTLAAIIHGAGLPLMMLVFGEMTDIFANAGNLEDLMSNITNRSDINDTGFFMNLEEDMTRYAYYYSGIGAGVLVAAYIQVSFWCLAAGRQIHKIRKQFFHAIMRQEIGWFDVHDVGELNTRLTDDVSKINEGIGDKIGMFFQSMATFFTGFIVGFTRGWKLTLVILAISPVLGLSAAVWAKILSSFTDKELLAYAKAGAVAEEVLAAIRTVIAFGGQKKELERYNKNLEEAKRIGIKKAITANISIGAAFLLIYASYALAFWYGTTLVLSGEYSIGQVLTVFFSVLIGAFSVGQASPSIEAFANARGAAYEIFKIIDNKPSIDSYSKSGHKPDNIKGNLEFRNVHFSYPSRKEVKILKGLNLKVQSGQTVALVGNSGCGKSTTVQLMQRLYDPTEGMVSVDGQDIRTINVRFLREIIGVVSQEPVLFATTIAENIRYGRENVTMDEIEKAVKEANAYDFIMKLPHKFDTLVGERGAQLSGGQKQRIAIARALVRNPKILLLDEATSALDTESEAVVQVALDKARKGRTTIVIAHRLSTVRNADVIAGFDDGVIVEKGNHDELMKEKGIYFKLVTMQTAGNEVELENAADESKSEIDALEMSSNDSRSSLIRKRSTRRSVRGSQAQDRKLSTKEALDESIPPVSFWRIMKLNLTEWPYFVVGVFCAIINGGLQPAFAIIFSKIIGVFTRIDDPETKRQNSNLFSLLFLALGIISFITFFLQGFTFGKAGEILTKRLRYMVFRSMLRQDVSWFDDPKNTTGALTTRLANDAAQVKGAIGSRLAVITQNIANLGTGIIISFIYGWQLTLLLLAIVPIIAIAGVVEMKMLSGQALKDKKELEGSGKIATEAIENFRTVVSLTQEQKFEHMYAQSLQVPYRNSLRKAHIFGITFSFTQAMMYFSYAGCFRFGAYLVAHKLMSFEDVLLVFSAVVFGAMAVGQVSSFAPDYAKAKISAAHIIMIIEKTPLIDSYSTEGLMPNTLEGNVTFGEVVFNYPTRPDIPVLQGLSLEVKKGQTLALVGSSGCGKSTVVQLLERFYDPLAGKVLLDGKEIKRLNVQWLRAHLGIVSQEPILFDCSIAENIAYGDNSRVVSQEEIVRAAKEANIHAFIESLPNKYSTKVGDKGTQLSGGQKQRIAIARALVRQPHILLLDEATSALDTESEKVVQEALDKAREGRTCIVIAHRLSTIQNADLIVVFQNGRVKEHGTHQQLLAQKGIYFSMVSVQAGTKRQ

Sequence of CYP3A4 (P08684 whole entry): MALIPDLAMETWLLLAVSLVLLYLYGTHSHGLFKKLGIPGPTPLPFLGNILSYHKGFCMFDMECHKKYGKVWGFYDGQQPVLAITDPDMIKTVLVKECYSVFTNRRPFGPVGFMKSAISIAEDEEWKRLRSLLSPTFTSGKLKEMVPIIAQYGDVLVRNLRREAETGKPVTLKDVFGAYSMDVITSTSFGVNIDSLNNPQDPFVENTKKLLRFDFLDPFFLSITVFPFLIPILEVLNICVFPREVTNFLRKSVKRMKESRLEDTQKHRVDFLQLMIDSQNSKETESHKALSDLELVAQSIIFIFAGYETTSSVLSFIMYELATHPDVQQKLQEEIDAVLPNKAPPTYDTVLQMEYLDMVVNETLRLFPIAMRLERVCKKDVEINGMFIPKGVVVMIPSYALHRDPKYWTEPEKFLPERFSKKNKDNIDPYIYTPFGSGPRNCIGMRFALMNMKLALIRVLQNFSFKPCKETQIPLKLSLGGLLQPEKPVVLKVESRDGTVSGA

| Structure (SMILES) | boost of THC and CBD levels by ketoconazole (CYP3A4) | boost of THC and CBD levels by the CYP3A4 inhibitor ketoconazole (CYP3A4) | THC levels, fold lower, Homozygous MINOR Alleles (T/T) (ABCB1; ABCB1 SNIP 2-01-AFMLG, genotype T/T) | blood THC levels after consuming THC (ABCB1; users with homozygous alleles (T/T) at rs1045642 of ABCB1, relative to people with a different genotype) |
| --- | --- | --- | --- | --- |
| C=C(C)[C@@H]1CCC(C)=C[C@H]1c1c(O)cc(CCCCC)cc1O [CBD, Cannabidiol] | approximately 2 fold | dosing by approximately 2-fold | – | – |
| CCCCCc1cc(O)c2c(c1)OC(C)(C)[C@@H]1CCC(C)=C[C@@H]21 [THC, Tetrahydrocannabinol] | approximately 2 fold | dosing by approximately 2-fold | may have 2-fold lower | two-fold lower |
